What all share (type): biochemical
Settings in all cases: for IC50: Table 2

In one assay the target is hCA II (Homo sapiens, UniProt P00918). As to the kind of experiment: hCA II esterase activity inhibition (Verpoorte method, p-nitrophenylacetate). The protocol:
(§1) The activities of the CA isoenzymes were measured in accordance with Verpoorte et al.’s previously described methodology. […] There was 400 µL of Tris–HCl buffer (pH 7.4), 360 µL of PNA (3.0 mM), 220 µL of H2O, and 20 µL of purified hCA isoenzyme in the reaction mixture. The identical cuvette was prepared without the enzyme in order to obtain a control measurement. The standard protein was bovine serum albumin.
(§2) To determine the IC50 values of the tested compounds, enzyme activity measurements were conducted at five to six different inhibitor concentrations. Percent activity values were calculated for each dose, taking into account the compounds’ molecular weights and dilution factors.
The IC50 study was completed prior to the Kᵢ determination. For the Kᵢ analysis, three selected concentrations of each inhibitor were used alongside a control (uninhibited) reaction. Enzyme activity data were converted to 1/V values and plotted against 1/[S] to generate Lineweaver–Burk plots.
(§3) Kᵢ values and standard deviations were calculated based on the type of inhibition (competitive or non-competitive), as inferred from the intersection pattern of the Lineweaver–Burk lines. These kinetic parameters allowed for further insight into the binding affinities and inhibition mechanisms of the compounds.

In the next assay the target is T1, AChE (Electrophorus electricus, UniProt O42275).
T1 construct: purchased Sigma-Aldrich Chemie, St. Louis, MO, USA C2888-500UN
Description: biochemical. As for the experimental part:
(§4) The previously published Ellman’s technique was used to measure the BChE and AChE activities. AChE (C2888-500UN) from Electrophorus electricus and BChE (C1057-1KU), extracted from equine serum, were both obtained from Sigma-Aldrich Chemie, St. Louis, MO, USA. The BChE/AChE activities were measured using 5,5′-dithiobis(2-nitrobenzoic acid) (DTNB) and butyrylthiocholine iodide (BChI)/[…] (AChI). In short, […] of the sample solutions with varying concentrations was dissolved in deionized water along with 100 µL of buffer (Tris–HCl, 1.0 M, pH 8.0). […] A fraction of DTNB (50 µL, 0.5 mM) was added following incubation. Finally, 50 µL of BChI/AChI (10/10 mM) was added to initiate the reaction. […] All enzymatic activity determination solutions, except AChE/BChE, were included in the negative control.
as §2
(§5) The IC50 study was completed prior to the Kᵢ determination. For the Kᵢ analysis, three selected concentrations of each inhibitor were used alongside a control (uninhibited) reaction.
as §3

A further assay has as its target T2, BChE (Equus caballus, UniProt P81908).
T2 construct: BChE (C1057-1KU), extracted from equine serum; purchased Sigma-Aldrich Chemie, St. Louis, MO, USA C1057-1KU; host or cells: equine serum
Description: biochemical. The protocol: as §4, §2, §5, §3

Another assay has as its target hCA I (Homo sapiens, UniProt P00915). As to the kind of experiment: hCA I esterase activity inhibition (Verpoorte method, p-nitrophenylacetate). As for the experimental part:
as §1, §2, §5, §3

Structures are written as SMILES.

T1 sequence (O42275 24-633): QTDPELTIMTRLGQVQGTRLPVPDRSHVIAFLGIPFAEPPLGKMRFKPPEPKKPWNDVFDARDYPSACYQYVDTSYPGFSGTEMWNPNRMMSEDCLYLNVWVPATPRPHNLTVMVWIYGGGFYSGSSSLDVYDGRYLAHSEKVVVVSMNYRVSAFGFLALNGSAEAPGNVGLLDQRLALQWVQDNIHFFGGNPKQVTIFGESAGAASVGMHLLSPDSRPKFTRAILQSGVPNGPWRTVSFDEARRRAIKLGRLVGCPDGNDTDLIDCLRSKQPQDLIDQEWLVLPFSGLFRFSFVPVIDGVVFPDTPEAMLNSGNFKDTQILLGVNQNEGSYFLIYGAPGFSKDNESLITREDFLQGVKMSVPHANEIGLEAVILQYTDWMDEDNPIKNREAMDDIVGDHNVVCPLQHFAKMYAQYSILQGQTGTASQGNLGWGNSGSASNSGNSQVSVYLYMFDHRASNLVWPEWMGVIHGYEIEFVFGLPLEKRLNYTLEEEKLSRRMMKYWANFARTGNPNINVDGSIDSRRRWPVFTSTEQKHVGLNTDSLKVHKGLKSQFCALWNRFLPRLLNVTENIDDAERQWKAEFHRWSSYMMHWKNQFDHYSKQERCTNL
hCA I, sequence (P00915 whole entry): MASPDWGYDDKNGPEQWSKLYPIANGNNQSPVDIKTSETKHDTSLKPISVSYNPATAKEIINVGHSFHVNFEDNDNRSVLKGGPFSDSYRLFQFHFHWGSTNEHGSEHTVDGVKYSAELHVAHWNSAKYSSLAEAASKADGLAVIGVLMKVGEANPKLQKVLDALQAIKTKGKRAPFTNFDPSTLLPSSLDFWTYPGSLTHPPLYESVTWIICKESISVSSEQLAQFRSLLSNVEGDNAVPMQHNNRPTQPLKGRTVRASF
T2 sequence (P81908 whole entry): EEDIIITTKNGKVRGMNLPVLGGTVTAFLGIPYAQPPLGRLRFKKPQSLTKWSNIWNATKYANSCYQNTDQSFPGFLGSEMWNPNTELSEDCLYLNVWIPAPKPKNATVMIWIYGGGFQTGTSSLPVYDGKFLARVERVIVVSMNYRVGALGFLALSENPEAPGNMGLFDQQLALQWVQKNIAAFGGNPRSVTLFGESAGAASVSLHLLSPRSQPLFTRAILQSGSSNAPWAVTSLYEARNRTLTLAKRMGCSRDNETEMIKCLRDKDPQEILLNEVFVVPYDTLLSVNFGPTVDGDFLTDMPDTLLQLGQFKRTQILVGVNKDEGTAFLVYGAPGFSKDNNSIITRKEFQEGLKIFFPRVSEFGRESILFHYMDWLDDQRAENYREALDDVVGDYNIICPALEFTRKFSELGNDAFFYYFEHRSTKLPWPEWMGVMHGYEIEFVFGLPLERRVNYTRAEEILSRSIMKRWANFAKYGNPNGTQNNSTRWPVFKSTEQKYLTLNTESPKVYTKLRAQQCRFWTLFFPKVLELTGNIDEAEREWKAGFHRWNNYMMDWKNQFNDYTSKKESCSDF

On to `COc1ccc(C(=O)/C=C/c2c(-c3ccccc3)nc3sc(SCc4ccccc4)nn23)cc1` [8a, (E)-3-(2-(Benzylthio)-6-phenylimidazo[2,1-b][1,3,4]thiadiazol-5-yl)-1-(4-methoxyphenyl)prop-2-en-1-one], for which the Ki at hCA II (Lineweaver-Burk plots) stood at 49.3 ± 5.03 nM; at AChE (Lineweaver-Burk plots), 3.86 ± 0.2 nM; on BChE (Lineweaver-Burk plots) it was 1.01 ± 0.08 nM; on hCA I (Lineweaver-Burk plots), 81.2 ± 4.36 nM. The IC50 worked out at 41.1 nM against hCA II, 4.36 nM at AChE, 1.37 nM against BChE and 73 nM at hCA I. For the same molecule, the “inhibition type, AChE” value against AChE (Lineweaver-Burk plots) is “competitive”. At BChE (Lineweaver-Burk plots), the “inhibition type, BChE” value is recorded as “competitive”.
For the molecule `O=C(/C=C/c1c(-c2ccccc2)nc2sc(SCc3ccccc3)nn12)c1ccc(Cl)cc1` [8b, (E)-3-(2-(Benzylthio)-6-phenylimidazo[2,1-b][1,3,4]thiadiazol-5-yl)-1-(4-chlorophenyl)prop-2-en-1-one], the inhibitory constant (Ki) at hCA II (Lineweaver-Burk plots) is 52.5 ± 6.24 nM; at AChE (Lineweaver-Burk plots), 6.01 ± 0.35 nM; at BChE (Lineweaver-Burk plots) it was 1.7 ± 0.1 nM; on hCA I (Lineweaver-Burk plots) it was 78 ± 5.48 nM. Also, the IC50 at hCA II came out at 49.3 nM; at AChE it was 6.77 nM; on BChE it was 1.95 nM; at hCA I, 64.4 nM.
For `COc1ccc(C(=O)/C=C/c2c(-c3ccccc3)nc3sc(SCc4ccc(F)cc4)nn23)cc1` [8c, (E)-3-(2-((4-Fluorobenzyl)thio)-6-phenylimidazo[2,1-b][1,3,4]thiadiazol-5-yl)-1-(4-methoxyphenyl)prop-2-en-1-one], the Ki at hCA II (Lineweaver-Burk plots) came out at 36.1 ± 5.36 nM; on AChE (Lineweaver-Burk plots), 11.3 ± 1.02 nM; on BChE (Lineweaver-Burk plots) it was 1.56 ± 0.06 nM. At hCA II (Lineweaver-Burk plots), the “inhibition type, hCA II” value is on record as “non-competitive”. The figures for the IC50 on hCA II, against AChE and on BChE were 30.2 nM, 13 nM and 2.03 nM, respectively.
For `O=C(/C=C/c1c(-c2ccccc2)nc2sc(SCc3ccc(F)cc3)nn12)c1ccc(Cl)cc1` [8d, (E)-1-(4-Chlorophenyl)-3-(2-((4-fluorobenzyl)thio)-6-phenylimidazo[2,1-b][1,3,4]thiadiazol-5-yl)prop-2-en-1-one], the Ki is 39.6 ± 4.91 nM at hCA II (Lineweaver-Burk plots), 7.98 ± 0.6 nM on AChE (Lineweaver-Burk plots), 1.78 ± 0.12 nM on BChE (Lineweaver-Burk plots) and 45.1 ± 3.91 nM on hCA I (Lineweaver-Burk plots). In addition, the 50% inhibitory concentration (IC50) at hCA II was determined as 34.1 nM; on AChE, 9.3 nM; on BChE it was 1.98 nM; against hCA I, 39.1 nM. Further, the “inhibition type, hCA I” value at hCA I (Lineweaver-Burk plots) is “non-competitive”.

These data come from article PMC12300381, “Synthesis, Biological Evaluation, and In Silico Characterization of Novel Imidazothiadiazole–Chalcone Hybrids as Multi-Target Enzyme Inhibitors” (Pharmaceuticals, 2025).
